Assay: NOR (novel object recognition) task in rats
Format: in vivo, rat
Settings: treated orally, 0.03 mg/kg
Protocol: FIG. 1 is a chart showing the results of a study on object recognition in rats treated orally with (1S,5S)-3-(5-bromofuran-2-ylcarbonyl)-3,6-diazabicyclo[3.2.1]octane. The results are shown as a function of recognition index (%) versus dose (mg/kg).
Certain exemplified compounds were assessed in the NOR (novel object recognition) task. Thus, (1S,5S)-3-(5-bromofuran-2-ylcarbonyl)-3,6-diazabicyclo[3.2.1]octane (FIG. 1) was active in NOR in rats, at 0.03 mg/kg. This provides evidence of the efficacy (and potency) of the compounds of the present invention in treating cognitive deficits, attentional disorders and dementias, and the potential of these compounds for human therapy.

Structure (SMILES): O=C(c1ccc(Br)o1)N1C[C@@H]2CN[C@@H](C2)C1 [(1S,5S)-3-(5-bromofuran-2-ylcarbonyl)-3,6-diazabicyclo[3.2.1]octane]
- activity in NOR (recognition index): active
